≈ marks a conversion by molar mass, not a printed value. Where two headings read alike, the source gives them in different places.
How the values were obtained:
ACC1 = ACC1 isolated from rat, mouse, monkey and human; cited from earlier work
ACC2 = ACC2 isolated from rat, mouse, monkey and human; cited from earlier work
C. albicans = assay: Antifungal Activity Assay (broth microtiter MIC), C. albicans; assay type: cell-based, Candida albicans; settings: Candida albicans, ATCC90028, 48 h
Outline: (§1)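 MICs were scored by eye at 48 h relative to the growth control. Plates followed CLSI M27-A3, with Candida suspensions in RPMI 1640+MOPS giving a final 2.5×10^3 CFU/mL; the colonies came from Sabouraud agar grown overnight at 35 °C.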

Septoria tritici (St) = assay: Growth inhibition assay of fungal pathogens, St; assay type: cell-based; settings: Zymoseptoria tritici, 48 h, growth inhibition at 48 hours vs 2% DMSO control
Outline: (§2)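 Percent inhibition derived at 48 hours from OD600 and visual scores versus 2% DMSO control, with media+DMSO blank as background. Spore inocula in 17% V8 medium were sized from 48 h growth curves; compounds tested at final 50/10/2 or 2/0.4/0.08 ppm.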

Rhizoctonia solani (Rs) = assay: Growth inhibition assay of fungal pathogens, Rs; assay type: cell-based; settings: 48 h
[1] = system: Fusarium virguliforme (Fv); assay: Growth inhibition assay of fungal pathogens, Fv; assay type: cell-based; settings: 48 h
Outline: as §2

[2] = system: Fusarium moniliforme (Fm); assay: Growth inhibition assay of fungal pathogens, Fm; assay type: cell-based; settings: Fusarium verticillioides, 48 h, read-out: Concentration at 90% Inhibition Fm
Outline: as §2

human (hACC2) = human (hACC2) (Homo sapiens, UniProt O00763); assay: In vitro ACC inhibition assay (ADP-Glo), hACC2; assay type: biochemical; settings: Table 2b, additional results, 5 nM ACC2, 20 μM ATP, 20 μM acetyl-CoA
Experimental: The detailed procedure is as follows. […] 10 μL ADP glo reagent was added. […] 20 μL kinase detection reagent was added.

[3] = system: Phytophthora capsici (Pc); assay: Growth inhibition assay of fungal pathogens, Pc; assay type: cell-based; settings: 48 h
Outline: as §2

Botrtyis cinerea (Bc) = assay: Growth inhibition assay of fungal pathogens, Bc; assay type: cell-based; settings: 48 h, growth inhibition at 48 hours vs 2% DMSO control
Outline: as §2

[4] = system: Collectotrichum graminicola (Cg); assay: Growth inhibition assay of fungal pathogens, Cg; assay type: cell-based; settings: 48 h, growth inhibition at 48 hours vs 2% DMSO control
Outline: as §2

C. parapsilosis = assay: Antifungal Activity Assay (broth microtiter MIC), C. parapsilosis; assay type: cell-based, Candida parapsilosis; settings: Lodderomyces parapsilosis, ATCC22019, 48 h
Outline: as §1

Diplodia maydis (Dm) = assay: Growth inhibition assay of fungal pathogens, Dm; assay type: cell-based; settings: Stenocarpella maydis, 48 h, growth inhibition at 48 hours vs 2% DMSO control
Outline: as §2

C. krusei = assay: Antifungal Activity Assay (broth microtiter MIC), C. krusei; assay type: cell-based, Candida krusei; settings: Pichia kudriavzevii, ATCC6258, 48 h
Outline: as §1

fungal (fACC2) = fungal (fACC2) (UniProt Q00955); settings: read-out: fACC2 (in vitro ACC2 Inhibition Assay, IC50); Table 2b, additional results; ADP-Glo, 5 nM ACC2, 20 μM ATP, 20 μM acetyl-CoA
[5] = Table 3b (additional results), ATCC 90028, 3 replicates, MIC recorded at 48 h, read-out: MIC, C. albicans ATCC 90028
[6] = Septoria tritici, read-out: Concentration at 90% Inhibition St
[7] = mycelial plugs, growth inhibition at 48 hours vs 2% DMSO control, read-out: Concentration at 90% Inhibition Rs
[8] = growth inhibition at 48 hours vs 2% DMSO control, read-out: Concentration at 90% Inhibition Fv
[9] = Fusarium moniliforme, growth inhibition at 48 hours vs 2% DMSO control
[10] = growth inhibition at 48 hours vs 2% DMSO control, read-out: Concentration at 90% Inhibition Pc
[11] = Botrtyis cinerea, read-out: Concentration at 90% Inhibition Bc
[12] = Collectotrichum graminicola, read-out: Concentration at 90% Inhibition Cg
[13] = Table 3b (additional results), ATCC 22019, 3 replicates, MIC recorded at 48 h, read-out: MIC, C. parapsilosis ATCC 22019
[14] = Diplodia maydis, read-out: Concentration at 90% Inhibition Dm
[15] = Table 3b (additional results), ATCC 6258, 3 replicates, MIC recorded at 48 h, read-out: MIC, C. krusei ATCC 6258

Chain of fungal (fACC2) (Q00955 whole entry): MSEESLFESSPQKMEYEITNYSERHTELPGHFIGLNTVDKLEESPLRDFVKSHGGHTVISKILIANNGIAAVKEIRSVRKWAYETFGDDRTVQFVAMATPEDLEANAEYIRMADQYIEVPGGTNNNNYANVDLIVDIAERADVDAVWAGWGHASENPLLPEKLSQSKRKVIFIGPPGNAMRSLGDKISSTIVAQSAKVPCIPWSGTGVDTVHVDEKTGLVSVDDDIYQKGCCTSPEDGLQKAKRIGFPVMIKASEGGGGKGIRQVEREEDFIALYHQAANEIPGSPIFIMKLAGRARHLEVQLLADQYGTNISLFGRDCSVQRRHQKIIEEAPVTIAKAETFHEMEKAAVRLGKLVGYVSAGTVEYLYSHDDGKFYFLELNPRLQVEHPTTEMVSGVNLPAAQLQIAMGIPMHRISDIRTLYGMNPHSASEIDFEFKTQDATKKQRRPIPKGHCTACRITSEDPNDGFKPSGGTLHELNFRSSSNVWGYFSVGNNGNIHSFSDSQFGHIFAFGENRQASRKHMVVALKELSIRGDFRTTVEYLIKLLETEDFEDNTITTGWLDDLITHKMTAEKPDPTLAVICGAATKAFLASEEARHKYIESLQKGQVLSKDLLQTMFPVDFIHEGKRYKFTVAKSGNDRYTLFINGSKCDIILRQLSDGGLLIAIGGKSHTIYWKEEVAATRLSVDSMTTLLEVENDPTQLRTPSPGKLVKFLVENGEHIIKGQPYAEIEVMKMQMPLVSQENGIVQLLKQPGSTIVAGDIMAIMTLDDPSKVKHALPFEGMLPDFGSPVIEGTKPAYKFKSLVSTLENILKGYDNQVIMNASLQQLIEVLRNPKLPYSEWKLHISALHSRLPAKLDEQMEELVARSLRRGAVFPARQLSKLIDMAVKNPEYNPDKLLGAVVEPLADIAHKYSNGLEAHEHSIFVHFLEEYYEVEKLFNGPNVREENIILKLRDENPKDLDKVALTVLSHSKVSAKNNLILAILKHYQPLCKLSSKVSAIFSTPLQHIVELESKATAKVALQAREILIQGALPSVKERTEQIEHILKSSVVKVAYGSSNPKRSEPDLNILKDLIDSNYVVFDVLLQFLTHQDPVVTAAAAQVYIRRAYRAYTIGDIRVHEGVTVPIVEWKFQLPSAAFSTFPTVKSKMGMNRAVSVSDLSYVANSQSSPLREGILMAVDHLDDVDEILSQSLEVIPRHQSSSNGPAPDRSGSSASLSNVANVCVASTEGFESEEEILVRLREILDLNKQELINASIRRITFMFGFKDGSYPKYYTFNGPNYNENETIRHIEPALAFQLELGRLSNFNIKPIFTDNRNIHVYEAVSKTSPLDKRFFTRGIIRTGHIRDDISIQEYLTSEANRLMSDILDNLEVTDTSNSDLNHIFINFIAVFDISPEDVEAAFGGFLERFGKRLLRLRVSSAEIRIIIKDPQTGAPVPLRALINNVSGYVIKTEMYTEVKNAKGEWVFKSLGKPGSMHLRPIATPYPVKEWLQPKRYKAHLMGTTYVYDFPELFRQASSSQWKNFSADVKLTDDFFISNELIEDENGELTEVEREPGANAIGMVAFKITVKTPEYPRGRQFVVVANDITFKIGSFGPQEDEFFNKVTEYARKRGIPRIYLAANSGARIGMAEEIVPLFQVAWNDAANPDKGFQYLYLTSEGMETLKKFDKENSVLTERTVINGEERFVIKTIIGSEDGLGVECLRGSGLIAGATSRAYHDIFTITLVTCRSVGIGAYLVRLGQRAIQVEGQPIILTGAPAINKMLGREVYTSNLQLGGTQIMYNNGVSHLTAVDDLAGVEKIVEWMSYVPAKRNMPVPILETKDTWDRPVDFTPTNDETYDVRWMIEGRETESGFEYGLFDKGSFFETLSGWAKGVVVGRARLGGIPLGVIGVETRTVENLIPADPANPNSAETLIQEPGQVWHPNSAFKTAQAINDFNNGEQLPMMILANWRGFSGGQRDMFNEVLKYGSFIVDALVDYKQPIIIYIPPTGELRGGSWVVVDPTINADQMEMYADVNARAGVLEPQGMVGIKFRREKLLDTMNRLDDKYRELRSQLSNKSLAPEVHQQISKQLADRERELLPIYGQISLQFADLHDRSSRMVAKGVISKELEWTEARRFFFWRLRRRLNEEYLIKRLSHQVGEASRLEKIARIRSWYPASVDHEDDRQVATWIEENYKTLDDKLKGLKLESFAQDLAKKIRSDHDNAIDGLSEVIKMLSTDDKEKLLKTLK
Chain of human (hACC2) (O00763 whole entry): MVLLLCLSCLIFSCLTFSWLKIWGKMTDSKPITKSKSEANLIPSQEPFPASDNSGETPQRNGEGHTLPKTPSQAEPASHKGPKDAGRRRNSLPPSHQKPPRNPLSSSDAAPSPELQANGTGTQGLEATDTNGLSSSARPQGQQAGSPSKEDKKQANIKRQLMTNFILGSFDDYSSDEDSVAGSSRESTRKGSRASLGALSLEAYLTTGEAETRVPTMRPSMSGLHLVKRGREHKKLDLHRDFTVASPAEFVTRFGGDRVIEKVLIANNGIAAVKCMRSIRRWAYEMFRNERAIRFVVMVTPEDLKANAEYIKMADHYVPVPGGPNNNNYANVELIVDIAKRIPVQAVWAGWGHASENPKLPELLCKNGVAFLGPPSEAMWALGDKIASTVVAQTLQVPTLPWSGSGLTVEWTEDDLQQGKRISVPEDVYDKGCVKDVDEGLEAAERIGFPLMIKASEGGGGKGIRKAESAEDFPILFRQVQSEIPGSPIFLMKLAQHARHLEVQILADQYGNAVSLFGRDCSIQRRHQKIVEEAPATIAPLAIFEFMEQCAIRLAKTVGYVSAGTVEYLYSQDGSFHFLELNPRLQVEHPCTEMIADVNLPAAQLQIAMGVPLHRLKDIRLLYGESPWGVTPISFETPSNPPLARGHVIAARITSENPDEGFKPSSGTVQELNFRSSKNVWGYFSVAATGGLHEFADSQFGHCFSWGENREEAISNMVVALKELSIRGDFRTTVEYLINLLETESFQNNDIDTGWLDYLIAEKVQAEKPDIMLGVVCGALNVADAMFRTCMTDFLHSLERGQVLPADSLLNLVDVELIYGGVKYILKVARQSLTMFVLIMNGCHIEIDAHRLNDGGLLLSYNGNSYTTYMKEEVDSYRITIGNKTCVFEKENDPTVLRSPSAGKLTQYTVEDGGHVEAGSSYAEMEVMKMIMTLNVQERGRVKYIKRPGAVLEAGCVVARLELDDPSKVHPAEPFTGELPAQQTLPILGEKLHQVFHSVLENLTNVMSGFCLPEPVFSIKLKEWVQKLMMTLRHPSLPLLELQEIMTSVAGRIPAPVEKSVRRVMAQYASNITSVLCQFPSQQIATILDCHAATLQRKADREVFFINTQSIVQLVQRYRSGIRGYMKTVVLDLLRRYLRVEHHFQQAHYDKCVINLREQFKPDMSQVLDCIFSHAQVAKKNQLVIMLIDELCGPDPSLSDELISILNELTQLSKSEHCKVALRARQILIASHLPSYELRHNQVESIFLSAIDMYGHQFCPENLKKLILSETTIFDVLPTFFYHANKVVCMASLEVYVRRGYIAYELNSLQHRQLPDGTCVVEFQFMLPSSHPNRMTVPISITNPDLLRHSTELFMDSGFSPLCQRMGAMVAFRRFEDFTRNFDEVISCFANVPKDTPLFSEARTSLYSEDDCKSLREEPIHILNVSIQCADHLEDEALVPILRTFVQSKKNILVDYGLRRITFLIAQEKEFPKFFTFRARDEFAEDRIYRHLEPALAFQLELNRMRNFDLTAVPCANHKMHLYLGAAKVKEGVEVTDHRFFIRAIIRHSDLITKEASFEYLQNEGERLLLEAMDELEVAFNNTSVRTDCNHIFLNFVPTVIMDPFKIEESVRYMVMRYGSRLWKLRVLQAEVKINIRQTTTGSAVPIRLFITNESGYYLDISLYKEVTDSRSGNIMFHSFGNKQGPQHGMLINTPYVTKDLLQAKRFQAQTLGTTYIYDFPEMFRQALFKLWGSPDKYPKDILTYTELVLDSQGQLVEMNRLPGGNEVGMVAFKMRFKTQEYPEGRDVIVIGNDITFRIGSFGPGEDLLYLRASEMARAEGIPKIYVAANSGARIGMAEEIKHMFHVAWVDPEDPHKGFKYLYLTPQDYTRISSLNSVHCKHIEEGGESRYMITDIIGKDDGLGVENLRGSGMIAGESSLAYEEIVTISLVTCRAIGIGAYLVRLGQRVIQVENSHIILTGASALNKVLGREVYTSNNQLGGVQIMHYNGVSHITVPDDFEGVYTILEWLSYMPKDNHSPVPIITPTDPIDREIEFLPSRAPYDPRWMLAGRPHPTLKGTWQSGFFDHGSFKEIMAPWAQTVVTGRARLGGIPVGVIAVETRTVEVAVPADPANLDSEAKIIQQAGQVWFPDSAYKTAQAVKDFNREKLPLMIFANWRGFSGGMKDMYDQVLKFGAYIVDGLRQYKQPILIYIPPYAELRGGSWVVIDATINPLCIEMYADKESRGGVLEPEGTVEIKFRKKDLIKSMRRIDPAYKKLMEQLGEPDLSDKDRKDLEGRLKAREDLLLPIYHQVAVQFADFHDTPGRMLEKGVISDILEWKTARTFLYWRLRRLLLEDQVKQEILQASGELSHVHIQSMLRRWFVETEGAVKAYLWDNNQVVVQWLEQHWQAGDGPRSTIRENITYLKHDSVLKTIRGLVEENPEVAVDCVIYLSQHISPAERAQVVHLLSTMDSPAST

For `O=C(c1c2ccccc2cc2ccccc12)N1CCC(N2CCC[C@@H](C(=O)N3CCOCC3)C2)CC1` [CP-640186], the IC50 (ACC1) is given as ~60 nM and the IC50 (ACC2) is given as ~60 nM.

In the case of `Cc1c(-n2nccn2)sc2c1c(=O)n(C(C)(C)C(=O)NC(C)C)c(=O)n2CCc1cc(F)ccc1OC1CCOCC1` [Compound I-279], the MIC (C. albicans; [5]) is reported as 2.01 to 4 µg/mL (≈ 3.36 to 6.68 µM), the IC90 (Septoria tritici (St); [6]) is reported as > 50 µg/mL and the IC90 (Rhizoctonia solani (Rs); [7]) is reported as 10 µg/mL (≈ 16.7 µM). The IC90 [1, 8] was 0.08 µg/mL (≈ 0.134 µM), the IC90 [2, 9] was 0.08 µg/mL (≈ 0.134 µM) and the IC50 (human (hACC2)) was 10 to 40 nM. For the same molecule, the IC90 [3, 10] was > 50 µg/mL, the IC90 (Botrtyis cinerea (Bc); [11]) was 2 µg/mL (≈ 3.34 µM) and the IC90 [4, 12] was 10 µg/mL (≈ 16.7 µM). For the same molecule, the MIC (C. parapsilosis; [13]) was 1.01 to 2 µg/mL (≈ 1.69 to 3.34 µM), the IC90 (Diplodia maydis (Dm); [14]) was > 50 µg/mL and the MIC (C. krusei; [15]) was 2.01 to 4 µg/mL (≈ 3.36 to 6.68 µM). For the same molecule, the IC50 (fungal (fACC2)) was 0.3 to 1 nM.

In the case of `Cc1c(-n2nccn2)sc2c1c(=O)n(C(C)(C)C(=O)NC(C)C)c(=O)n2CCc1cc(F)ccc1OCCC#N` [Compound I-280], the MIC (C. albicans; read-out: MIC, C. albicans ATCC 90028, Table 3b (additional results), 3 replicates, MIC recorded at 48 h) is reported as 1.01 to 2 µg/mL (≈ 1.78 to 3.52 µM), the IC90 (Septoria tritici (St); read-out: Concentration at 90% Inhibition St, Septoria tritici) is reported as > 50 µg/mL and the IC90 (Rhizoctonia solani (Rs); read-out: Concentration at 90% Inhibition Rs, Rhizoctonia solani, mycelial plugs, growth inhibition at 48 hours vs 2% DMSO control) is reported as > 50 µg/mL. The IC90 ([1]; read-out: Concentration at 90% Inhibition Fv, Fusarium virguliforme, growth inhibition at 48 hours vs 2% DMSO control) was 2 µg/mL (≈ 3.52 µM), the IC90 [2] was 2 µg/mL (≈ 3.52 µM) and the IC50 (human (hACC2)) was 10 to 40 nM. The IC90 ([3]; read-out: Concentration at 90% Inhibition Pc, Phytophthora capsici, growth inhibition at 48 hours vs 2% DMSO control) was > 50 µg/mL, the IC90 (Botrtyis cinerea (Bc); read-out: Concentration at 90% Inhibition Bc, Botrtyis cinerea) was 10 µg/mL (≈ 17.6 µM) and the IC90 ([4]; read-out: Concentration at 90% Inhibition Cg, Collectotrichum graminicola) was > 50 µg/mL. The MIC (C. parapsilosis; read-out: MIC, C. parapsilosis ATCC 22019, Table 3b (additional results), 3 replicates, MIC recorded at 48 h) was 1.01 to 2 µg/mL (≈ 1.78 to 3.52 µM), the IC90 (Diplodia maydis (Dm); read-out: Concentration at 90% Inhibition Dm, Diplodia maydis) was > 50 µg/mL and the MIC (C. krusei; read-out: MIC, C. krusei ATCC 6258, Table 3b (additional results), 3 replicates, MIC recorded at 48 h) was 1.01 to 2 µg/mL (≈ 1.78 to 3.52 µM). It also gave an IC50 (fungal (fACC2)) of 1 to 5 nM.

With `Cc1c(-n2nccn2)sc2c1c(=O)n(C(C)(C)C(=O)NC(C)C)c(=O)n2CCc1cc(F)ccc1OC(C)C` [Compound I-281] the MIC (C. albicans; [5]) was > 4.01 µg/mL, the IC90 (Septoria tritici (St); [6]) was > 50 µg/mL and the IC90 (Rhizoctonia solani (Rs); [7]) was 10 µg/mL (≈ 18 µM). It also gave an IC90 [1, 8] of 0.08 µg/mL (≈ 0.144 µM), an IC90 [2, 9] of 0.08 µg/mL (≈ 0.144 µM) and an IC50 (human (hACC2)) of 10 to 40 nM. For the same molecule, the IC90 [3, 10] was > 50 µg/mL, the IC90 (Botrtyis cinerea (Bc); [11]) was 2 µg/mL (≈ 3.59 µM) and the IC90 [4, 12] was 10 µg/mL (≈ 18 µM). It also gave an MIC (C. parapsilosis; [13]) of 2.01 to 4 µg/mL (≈ 3.61 to 7.19 µM), an IC90 (Diplodia maydis (Dm); [14]) of 2 µg/mL (≈ 3.59 µM) and an MIC (C. krusei; [15]) of 1.01 to 2 µg/mL (≈ 1.81 to 3.59 µM). It also gave an IC50 (fungal (fACC2)) of 0.3 to 1 nM.
